Measurements taken from ChEMBL document CHEMBL1140667, “Pyrrolidino-tetrahydroisoquinolines bearing pendant heterocycles as potent dual H3 antagonist and serotonin transporter inhibitors” (Bioorg Med Chem Lett, 2007).

Experiments:
Histamine H3 receptor [1] = target: T1, Histamine H3 receptor (Homo sapiens, UniProt Q9Y5N1); experiment: Binding affinity to human histamine H3 receptor
Histamine H3 receptor [2] = target: T1, Histamine H3 receptor; experiment: Antagonist activity at human histamine H3 receptor; type: functional; conditions: read-out: pA2 (converted)
[3] = Plasma concentration in mouse at 10 mg/kg, ip after 15 mins; type: ADME, organism-based; design: dose 10 mg/kg, route intraperitoneal
[4] = Drug level in mouse brain at 10 mg/kg, ip after 2 hrs; type: ADME, organism-based; design: dose 10 mg/kg, route intraperitoneal; conditions: read-out: Drug uptake
Rattus norvegicus [5] = experiment: Increase in dopamine level in rat brain at 3 mg/kg, sc within 4 hrs relative to basal level; type: ADME, organism-based; design: dose 3 mg/kg, route subcutaneous; conditions: in vivo
[6] = Mean residence time in mouse brain at 10 mg/kg, ip; type: ADME, organism-based; design: dose 10 mg/kg, route intraperitoneal
[7] = Ratio of log AUC in brain to plasma in mouse at 10 mg/kg, ip; type: ADME, organism-based; design: dose 10 mg/kg, route intraperitoneal; conditions: brain and plasma, read-out: BPR
[8] = Mean residence time in mouse plasma at 10 mg/kg, ip; type: ADME, organism-based; design: dose 10 mg/kg, route intraperitoneal
[9] = target: Sodium-dependent noradrenaline transporter (Homo sapiens, UniProt P23975); experiment: Binding affinity to NET
Sequence of Sodium-dependent noradrenaline transporter (P23975 whole entry): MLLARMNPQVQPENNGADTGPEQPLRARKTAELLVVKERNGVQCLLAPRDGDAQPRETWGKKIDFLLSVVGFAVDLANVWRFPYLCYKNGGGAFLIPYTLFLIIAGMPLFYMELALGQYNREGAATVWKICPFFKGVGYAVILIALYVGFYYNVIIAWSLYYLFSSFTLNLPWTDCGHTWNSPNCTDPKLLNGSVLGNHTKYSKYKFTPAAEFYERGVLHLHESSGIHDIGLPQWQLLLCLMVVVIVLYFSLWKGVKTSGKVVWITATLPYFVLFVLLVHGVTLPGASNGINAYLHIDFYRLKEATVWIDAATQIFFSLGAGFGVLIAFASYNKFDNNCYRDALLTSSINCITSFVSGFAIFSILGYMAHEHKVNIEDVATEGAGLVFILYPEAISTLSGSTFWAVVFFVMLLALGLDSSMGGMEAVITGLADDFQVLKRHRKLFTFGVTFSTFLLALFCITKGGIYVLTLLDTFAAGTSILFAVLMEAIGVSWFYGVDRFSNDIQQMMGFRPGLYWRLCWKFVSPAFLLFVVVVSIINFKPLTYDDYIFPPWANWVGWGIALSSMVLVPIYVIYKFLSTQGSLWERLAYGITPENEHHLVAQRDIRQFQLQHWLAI

[10] = target: Sodium-dependent dopamine transporter (Homo sapiens, UniProt Q01959); experiment: Binding affinity to DAT
Sequence of Sodium-dependent dopamine transporter (Q01959 whole entry): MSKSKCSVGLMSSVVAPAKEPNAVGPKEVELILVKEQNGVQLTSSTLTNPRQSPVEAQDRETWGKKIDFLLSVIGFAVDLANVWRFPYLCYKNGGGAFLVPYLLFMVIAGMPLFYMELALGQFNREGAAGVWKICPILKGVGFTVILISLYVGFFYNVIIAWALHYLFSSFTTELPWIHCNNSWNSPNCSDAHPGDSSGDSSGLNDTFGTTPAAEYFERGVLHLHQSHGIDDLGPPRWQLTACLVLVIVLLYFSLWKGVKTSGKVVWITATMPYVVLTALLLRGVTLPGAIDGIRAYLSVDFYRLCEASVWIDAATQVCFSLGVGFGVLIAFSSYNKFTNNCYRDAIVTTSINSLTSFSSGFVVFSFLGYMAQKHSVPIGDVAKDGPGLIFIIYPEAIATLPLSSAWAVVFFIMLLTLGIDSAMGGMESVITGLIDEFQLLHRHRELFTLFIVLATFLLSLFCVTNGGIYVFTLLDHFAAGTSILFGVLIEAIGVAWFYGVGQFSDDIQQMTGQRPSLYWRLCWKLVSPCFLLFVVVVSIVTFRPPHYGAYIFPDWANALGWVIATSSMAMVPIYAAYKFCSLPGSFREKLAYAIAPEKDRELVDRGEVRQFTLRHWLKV

Rattus norvegicus [11] = experiment: Increase in 5-hydroxytryptamine level in rat brain at 3 mg/kg, sc within 4 hrs relative to basal level; type: ADME, organism-based; design: dose 3 mg/kg, route subcutaneous; conditions: in vivo
[12] = target: Kappa-type opioid receptor (Homo sapiens, UniProt P41145); experiment: Binding affinity to kappa opioid receptor
Sequence of Kappa-type opioid receptor (P41145 whole entry): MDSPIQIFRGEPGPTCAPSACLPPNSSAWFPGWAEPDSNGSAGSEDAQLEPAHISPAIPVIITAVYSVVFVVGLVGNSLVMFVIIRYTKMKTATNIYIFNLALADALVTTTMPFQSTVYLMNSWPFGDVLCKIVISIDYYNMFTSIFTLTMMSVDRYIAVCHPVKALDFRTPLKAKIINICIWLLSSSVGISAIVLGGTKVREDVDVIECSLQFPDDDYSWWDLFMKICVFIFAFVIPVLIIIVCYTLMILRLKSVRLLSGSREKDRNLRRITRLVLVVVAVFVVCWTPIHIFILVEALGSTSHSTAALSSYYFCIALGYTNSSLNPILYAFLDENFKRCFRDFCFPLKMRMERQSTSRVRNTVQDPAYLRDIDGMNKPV

T1 sequence (Q9Y5N1 whole entry): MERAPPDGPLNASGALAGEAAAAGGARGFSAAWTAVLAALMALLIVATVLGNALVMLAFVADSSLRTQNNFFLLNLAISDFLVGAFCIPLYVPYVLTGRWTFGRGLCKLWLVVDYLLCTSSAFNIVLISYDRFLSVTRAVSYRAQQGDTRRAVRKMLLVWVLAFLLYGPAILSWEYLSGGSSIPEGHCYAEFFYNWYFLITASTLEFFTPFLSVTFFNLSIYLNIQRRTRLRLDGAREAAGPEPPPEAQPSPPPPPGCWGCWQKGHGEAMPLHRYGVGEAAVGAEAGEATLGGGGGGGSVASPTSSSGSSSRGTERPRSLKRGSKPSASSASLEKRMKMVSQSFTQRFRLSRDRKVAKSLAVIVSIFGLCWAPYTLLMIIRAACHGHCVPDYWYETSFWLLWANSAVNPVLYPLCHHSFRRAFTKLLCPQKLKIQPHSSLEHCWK

| SMILES | Ki (Histamine H3 receptor [1]) [nM] | Kb (Histamine H3 receptor [2]) [nM] | further results |
| --- | --- | --- | --- |
| c1ccn2c([C@@H]3CN4CCC[C@@H]4c4cc(OCCCN5CCOCC5)ccc43)cnc2c1 | 2 | 3.16 |  |
| c1cn(-c2ccc([C@@H]3CN4CCC[C@@H]4c4cc(OCCCN5CCOCC5)ccc43)cc2)cn1 | 5.7 | 3.16 |  |
| c1ncc([C@@H]2CN3CCC[C@@H]3c3cc(OCCCN4CCOCC4)ccc32)s1 | 3.7 | 3.16 |  |
| c1ccc([C@@H]2CN3CCC[C@@H]3c3cc(OCCCN4CCOCC4)ccc32)nc1 | 2.7 | 3.16 |  |
| c1cncc([C@@H]2CN3CCC[C@@H]3c3cc(OCCCN4CCCCC4)ccc32)c1 | 0.8 | 3.16 | concentration at 0.25 h [3]: 1430 nM; concentration at 2 h [4]: 920 nM; Activity (Rattus norvegicus [5]): 500%; MRT [6]: 31.3 h; Kp [7]: 0.75; MRT [8]: 6.57 h; Ki [9]: 460 nM; Ki [10]: 107 nM; Activity (Rattus norvegicus [11]): 300%; Ki [12]: 74 nM |
| c1ccc([C@@H]2CN3CCC[C@@H]3c3cc(OCCCN4CCCCC4)ccc32)nc1 | 0.8 | 3.16 |  |
| c1csc([C@@H]2CN3CCC[C@@H]3c3cc(OCCCN4CCOCC4)ccc32)n1 | 3.3 | 3.16 |  |
| c1cnn(-c2ccc([C@@H]3CN4CCC[C@@H]4c4cc(OCCCN5CCOCC5)ccc43)cc2)c1 | 5.3 | 3.16 |  |
| c1cc([C@@H]2CN3CCC[C@@H]3c3cc(OCCCN4CCCCC4)ccc32)ccn1 | 1 | 3.16 |  |
| c1cc([C@@H]2CN3CCC[C@@H]3c3cc(OCCCN4CCOCC4)ccc32)[nH]n1 | 4 | 3.16 |  |
| c1cnc([C@@H]2CN3CCC[C@@H]3c3cc(OCCCN4CCOCC4)ccc32)cn1 | 4 | 3.16 |  |
| c1cc([C@@H]2CN3CCC[C@@H]3c3cc(OCCCN4CCOCC4)ccc32)cs1 | 3 | 3.16 |  |
| c1cncc([C@@H]2CN3CCC[C@@H]3c3cc(OCCCN4CCOCC4)ccc32)c1 | 1.6 | 3.16 |  |
